Test results as given in patent US7759101B2, “Ginsenoside glycosidases hydrolyzing ginsenoside sugar moieties and uses thereof” (priority 2000, dated 2010).
Each block holds one compound with its values, some of them ahead of it.

Assays:
[1] = system: ginsenoside glycosidases from A. niger; experiment: Hydrolysis of ginsenosides with crude ginsenoside glycosidases from A. niger, products measured by TLC; type: biochemical, Aspergillus niger; conditions: for effect of metal ions on the enzyme reaction: hydrolysis of Rb1, pH 5.0, 30°C.
Experimental: Aspergillus niger FFCCDL-48 g was cultured in a medium containing 1% ginseng extracts and 3% wheat bran extracts at 30° C. for 54 hours. Cells were removed by centrifugation, after which (NH4)2SO4 powder was added to 2000 ml of the cell-free supernatant with stirring to 65% saturation. The solution was stored overnight at 4° C. and precipitated proteins were collected by centrifugation, resuspended in 80 ml of distilled water and dialyzed against 0.01M acetate buffer pH 5. Insolubles were removed by centrifugation, and the solution was adjusted to 200 ml with 0.01 M acetate buffer pH 5. The crude enzyme solution may be used to hydrolyze ginsenosides or to purify the enzymes.
100 mg each of ginsenosides Rb1, Rb2, Rc and Rd and 10 mg of ginsenoside Rg3 were dissolved in separate tubes containing 10 ml of 0.01M acetate buffer pH 5. 10 ml of the crude enzyme solution obtained in 1.1 was added to each tube and allowed to react at 30° C. for 18 hours. Then 10 ml of n-butanol was added to stop the reactions. The products were measured by thin layer chromatography (TLC) (Silica gel 60-F254, Merck; chloroform:methanol:water 70:30:5).
Experiments were carried out to explore the effects of temperature, pH, metal ions and reaction time on the enzyme reaction, in order to further characterize the enzymes.
100 mg of ginsenoside Rb1 was used in a reaction under the conditions as described in 1.2 and the effect of temperature was shown in Table 2.

[2] = system: ginsenoside glycosidases from wheat bran; experiment: Hydrolysis of ginsenosides with ginsenoside glycosidases from wheat bran; type: biochemical; conditions: enzymes from wheat bran
Experimental: 500 g of wheat bran was added to 2500 ml of 0.02 M acetate buffer pH 5 and extracted at 40° C. for 2 hours. 2000 ml of supernatant were obtained by filtration to which (NH4)2SO4 was added gradually with stirring until 70% saturation. The mixture stand at 4° C. overnight. Protein pellets were collected by centrifugation and redissolved in 80 ml of distilled water and dialyzed against 0.02 M acetate buffer pH 5.0. Insolubles were removed by centrifugation and the supernatant was adjusted to a volume of 200 ml to obtain the crude enzyme solution.
10 ml of the enzyme solution was allowed to react with 10 ml of 1% ginsenoside substrate at 40° C. for 20 hours.

[3] = system: ginsenoside glycosidases from A. oryzae; experiment: Hydrolysis of ginsenosides with crude ginsenoside glycosidases from A. oryzae, TLC; type: biochemical, Aspergillus oryzae; conditions: pH 5.0, 30° C., 18 hours
Experimental: Aspergillus oryzae FFCCDL-39 g (available from Food Fermentation Culture Collection of Dalian Institute of Light Industry) was cultured with stirring in a medium containing 1% ginseng extracts and 3% wheat bran extracts at 30° C. for 64 hours. Cells were removed by centrifugation, after which (NH4)2SO4 powder was added to 2000 ml of the cell-free supernatant with stirring to 65% saturation. The solution was stored overnight at 4° C. and precipitated proteins were collected by centrifugation, resuspended in 80 ml of distilled water and dialyzed against 0.01M acetate buffer pH 5. Insolubles were removed by centrifugation, and the solution was adjusted to 200 ml with 0.01 M acetate buffer pH 5. The crude enzyme solution may be used to hydrolyze ginsenosides or to purify the enzymes.
Each 100 mg of ginsenosides Rb1, Rb2, Rc Re and Rd and each 10 mg of ginsenoside Rg3 and Rg2 were dissolved in separate tubes containing 10 ml of 0.01M acetate buffer pH 5. 10 ml of the crude enzyme solution obtained as above was added to each tube and allowed to react at 30° C. for 18 hours. Then 10 ml of n-butanol was added to stop the reactions. The products were measured by thin layer chromatography (TLC) (Silica gel 60-F254, Merck; chloroform:methanol:water 70:30:5). […]

[4] = system: ginsenoside glycosidase I from ginseng plants; experiment: Hydrolysis of ginsenosides with fraction 52 (ginsenoside glycosidase I) from ginseng plant; type: biochemical; conditions: ginsenoside glycosidase I from ginseng plant
Experimental: (§1) 200 g of fresh ginseng root was cut into pieces and added to 600 ml of 0.02 M acetate buffer pH 5. Supernatant was obtained by filtration after the mixture stand at 40° C. for 2 hours. To the supernatant (NH4)2SO4 was added gradually until 70% saturation and the mixture stand overnight at 4° C. Then protein pellets were collected by centrifugation and redissolved in 15 ml of distilled water. The solution was dialyzed against 0.02 M Tris-HCl pH 7.4. Insolubles were removed by centrifugation and the volume of the supernatant was adjusted to 20 ml.
(§2) 5 ml of the enzyme solution was subjected to a DEAE-Cellulose DE-25 column (Whatman, 1.4×6.7 cm). The column was eluted with a KCl gradient (0.06, 0.12, 0.18 and 0.24 M) in 0.02 M Tris-HCl pH 7.4. After elution, each fraction was tested for the activity of hydrolyzing ginsenosides. […] Fraction 52 can also hydrolyze the glucosidic bond at the twentieth carbon atom of Rb and Rc to give ginsenoside F2.

[5] = system: ginsenoside glycosidase III from ginseng plant; experiment: Hydrolysis of Rd with fraction 37 (ginsenoside glycosidase III) from ginseng plant; type: biochemical; conditions: ginsenoside glycosidase III from ginseng plant
Experimental: as §1, §2

[6] = system: ginsenoside glycosidase I; experiment: Hydrolysis of ginsenosides with Fraction 36 (ginsenoside glycosidase I); type: biochemical, Aspergillus niger; conditions: Fraction 36; substrates Rb1, Rb2, Rc, Rd 0.5%; Rg3, F2, Rh2, C—K, Rg2 0.05%; pH 5.0, 30° C.
Experimental: 10 ml of the enzyme solution obtained in 1.1 was subjected to a DEAE-Cellulose DE-52 column (Pharamcia, 1.5×6.7 cm) to absorb the enzyme protein. The column was then eluted with a NaCl gradient (0.06, 0.12, 0.18, 0.24, 0.3, 0.4, 0.5 and 0.6M).
Fractions 36 and 54 from the DEAE-Cellulose column appeared as one dot on a SDS-polyacrylamide gel, representing the purified enzymes.
Fraction 36 which was eluted with 0.12 M NaCl from the DEAE-Cellulose column was lyophilized and appeared as a single dot with a molecular weight of 51,000 Daltons when running on a SDS-polyacrylamide gel.
To observe the differences between the ginsenoside glycosidases of the invention and known exo-cellulases, the ginsenoside glycosidases of the invention were compared with cellulose β-glucosidase (E.C. 3.2.1.21) in two reactions with 0.5% ginsenosides Rb1 or Rd as substrate.

- effect of metal ions on the enzyme reaction [1]: slightly accelerate the conversion rate
- effect of metal ion on the enzyme activity [2]: enhance the enzyme activity
Structure (SMILES): [Mg+2] [Mg^++]

- effect of metal ions on the enzyme reaction [1]: inhibit the reaction
- effect of metal ion on the enzyme [4]: inhibitory effect
- effect of metal ion on the enzyme [5]: inhibitory effect
- effect of metal ion on the enzyme activity [2]: inhibitory effect
Structure (SMILES): [Cu+2] [Cu^++]

- effect of metal ion on the enzyme activity [2]: enhance the enzyme activity
Structure (SMILES): [Fe+2] [Fe^++]

- effect of metal ions on the enzyme reaction [1]: slightly accelerate the conversion rate
- effect of metal ion on the enzyme [4]: enhancing effect
- effect of metal ion on the enzyme [5]: enhancing effect
Structure (SMILES): [Ca+2] [Ca^++]

More lines, now with the values behind:

Structure (SMILES): CC(C)=CCC[C@](C)(O[C@@H]1O[C@H](CO)[C@@H](O)[C@H](O)[C@H]1O)[C@H]1CC[C@]2(C)[C@@H]1[C@H](O)C[C@@H]1[C@@]3(C)CC[C@H](O)C(C)(C)[C@@H]3[C@@H](O[C@@H]3O[C@H](CO)[C@@H](O)[C@H](O)[C@H]3O[C@@H]3O[C@@H](C)[C@H](O)[C@@H](O)[C@H]3O)C[C@]12C [Re, ginsenoside Re]
- Percentage of Re in the reaction product [3]: 20%
- Percentage of Rg1 in the reaction product [3]: 73%
- Percentage of Rh1 in the reaction product [3]: 2%
- Percentage of aglycone in the reaction product [3]: 5%

Structure (SMILES): CC(C)=CCC[C@](C)(O)[C@H]1CC[C@]2(C)[C@@H]1[C@H](O)C[C@@H]1[C@@]3(C)CC[C@H](O[C@@H]4O[C@H](CO)[C@@H](O)[C@H](O)[C@H]4O[C@@H]4O[C@H](CO)[C@@H](O)[C@H](O)[C@H]4O)C(C)(C)[C@@H]3CC[C@]12C [Rg3, ginsenoside Rg3]
- Percentage of Rg3 in the reaction product ([1]; pH 5, 30° C., 18 hours): 30%
- Percentage of Rh2 in the reaction product ([1]; pH 5, 30° C., 18 hours): 53%
- Percentage of aglycone in the reaction product ([1]; pH 5, 30° C., 18 hours): 17%
- conversion rate from Rg3 to Rh2 ([1]; pH 5, 30° C., 18 hours): over 50%
- Percentage of Rg3 in the reaction product [6]: 40%
- Percentage of Rh2 in the reaction product [6]: 57%
- Percentage of aglycone in the reaction product [6]: 3%
- Percentage of Rg3 in the reaction product [3]: 45%
- Percentage of Rh2 in the reaction product [3]: 50%
- Percentage of aglycone in the reaction product [3]: 5%

Structure (SMILES): CC(C)=CCC[C@](C)(O[C@@H]1O[C@H](CO)[C@@H](O)[C@H](O)[C@H]1O)[C@H]1CC[C@]2(C)[C@@H]1[C@H](O)C[C@@H]1[C@@]3(C)CC[C@H](O[C@@H]4O[C@H](CO)[C@@H](O)[C@H](O)[C@H]4O)C(C)(C)[C@@H]3CC[C@]12C [F2, ginsenoside F2]
- Percentage of C—K in the reaction product [6]: 62%
- Percentage of F2 in the reaction product [6]: 30%
- Percentage of Rh2 in the reaction product [6]: 3%
- Percentage of aglycone in the reaction product [6]: 5%
